The values that follow come from ChEMBL document CHEMBL1811807, “Evaluation of influence of Ap4A analogues on Fhit-positive HEK293T cells; cytotoxicity and ability to induce apoptosis” (Bioorg Med Chem, 2011).

Data set [1] in a line: Drug uptake in Fhit-positive HEK293T cells at 7.5 uM after 24 hrs using fluorescein labeled compound. The data set is classed as ADME, cell-based. Conditions: human, hek-293t.
A short description of data set [2]: Drug uptake in Fhit-positive HEK293T cells cytoplasmic compartment at 7.5 uM after 24 hrs using fluorescein labeled compound. The data set is classed as ADME, cell-based. Conditions: human, hek-293t.
The nature of data set [3]: Drug uptake in Fhit-positive HEK293T cells Vesicular structures compartment at 7.5 uM after 24 hrs using fluorescein labeled compound. Conditions: human, hek-293t. The class given is ADME, cell-based.
A short description of data set [4]: Stability in medium collected from human HEK293T cells assessed as intact compound level at 1 mM incubated up to 48 hrs at 37 degC. The data set is classed as ADME, cell-based, HEK-293T. Conditions: read-out: Stability.
A short description of data set [5]: Stability in medium collected from human HEK293T cells assessed as compound degradation level at 1 mM incubated up to 48 hrs at 37 degC. Conditions: read-out: Activity. The class given is ADME, cell-based, HEK-293T.
A short description of data set [6]: Stability in HEK293T cellular extract assessed as compound degradation level at 1 mM incubated after 48 hrs at 37 degC. The class given is ADME, HEK-293T. The following applies: human, read-out: Activity.
Data set [7] concerns the target Bis(5'-adenosyl)-triphosphatase (Homo sapiens, UniProt P49789). In words: Inhibition of Fragile histidine triad protein hydrolytic activity.
Data set [8] in a line: Stability in human HEK293T cellular extract assessed as intact compound level at 1 mM incubated after 48 hrs at 37 degC. The class given is ADME, cell-based, HEK-293T. Conditions: read-out: Stability.
In the next data set the test system is HL-60. Briefly: Cytotoxicity in human HL60 cells after 72 hrs bu MTT assay. The following applies: HL-60, 72 h. The data set is classed as functional, cell-based. In general terms: Tetrazolium assays rely on reduction of a dye to a coloured formazan, in cell work by metabolically active cells.
The subject of data set [9] is HEK-293T. Briefly: Cytotoxicity in Fhit-positive HEK293T cells after 72 hrs bu MTT assay. The class given is functional, cell-based. The following applies: Homo sapiens.
A further data set concerns A549. In words: Cytotoxicity in Fhit-negative human A549 cells after 72 hrs bu MTT assay. The class given is functional, cell-based. Conditions: A549, 72 h.
A further data set has as its system HeLa. Briefly: Cytotoxicity in Fhit-negative human HeLa cells after 72 hrs bu MTT assay. The data set is classed as functional, cell-based.
Data set [10] concerns HEK-293T. Briefly: Induction of apoptosis in Fhit-positive HEK293T cells assessed as caspase-3 activation at 5 uM after 18 hrs by fluorescent assay. The class given is functional, Homo sapiens.
For data set [11], the system named is HEK-293T. Briefly: Induction of apoptosis in Fhit-positive HEK293T cells assessed as caspase-3 activation at 0.5 to 1 uM after 18 hrs by fluorescent assay. The data set is classed as functional, Homo sapiens.
The subject of data set [12] is HEK-293T. In words: Induction of apoptosis in Fhit-positive HEK293T cells assessed as caspase-3 activation at 0.5 to 5 uM after 18 hrs by fluorescent assay. The class given is functional, Homo sapiens.
The subject of data set [13] is HEK-293T. Briefly: Induction of apoptosis in Fhit-positive HEK293T cells assessed as caspase-3 activation at 5 to 10 uM after 18 hrs by fluorescent assay. The data set is classed as functional, cell-based. The following applies: Homo sapiens.
For data set [14], the system named is HEK-293T. Briefly: Induction of apoptosis in Fhit-positive HEK293T cells assessed as caspase-8 activation at 5 uM after 18 hrs by luminescent assay. The data set is classed as functional, Homo sapiens.
For data set [15], the system named is HEK-293T. Briefly: Induction of apoptosis in Fhit-positive HEK293T cells assessed as caspase-9 activation at 5 uM after 18 hrs by luminescent assay. The data set is classed as functional, Homo sapiens.
The test system of data set [16] is HEK-293T. In words: Induction of apoptosis in Fhit-positive HEK293T cells assessed as caspase-3 activation at 5 uM in presence of Fhit-specific siRNA after 18 hrs by fluorescent assay. The class given is functional, cell-based. The following applies: Homo sapiens.
The subject of data set [17] is HEK-293T. Briefly: Induction of apoptosis in Fhit-positive HEK293T cells assessed as caspase-8 activation at 5 uM in presence of Fhit-specific siRNA after 18 hrs by fluorescent assay. The data set is classed as functional, cell-based. Conditions: Homo sapiens.
The subject of data set [18] is HEK-293T. Briefly: Induction of apoptosis in Fhit-positive HEK293T cells at 20 uM by Annexin-V assay (reference value: 3.9 +/- 0.95%). The class given is functional, Homo sapiens.
Data set [19] relates to HEK-293T. Briefly: Induction of apoptosis in Fhit-positive HEK293T cells at 5 uM after 24 hrs by Annexin-V assay (reference value: 3.9 +/- 0.95%). The class given is functional, Homo sapiens.
Data set [20] relates to HEK-293T. In words: Induction of apoptosis in Fhit-positive HEK293T cells at 5 uM after 48 hrs by Annexin-V assay (reference value: 3.9 +/- 0.95%). The data set is classed as functional, Homo sapiens.

What is called Ki is a dissociation constant, usually derived from enzyme kinetics or from competition with a known ligand. A higher Ki goes with lower affinity. The term IC50 denotes the concentration at which inhibition is half-maximal. Low values mean greater potency in that assay, high ones weaker potency in that assay.

The source made the active and inactive calls. The calls are words filed in the database; no cut-off is given here.

Chain of Bis(5'-adenosyl)-triphosphatase (P49789 whole entry): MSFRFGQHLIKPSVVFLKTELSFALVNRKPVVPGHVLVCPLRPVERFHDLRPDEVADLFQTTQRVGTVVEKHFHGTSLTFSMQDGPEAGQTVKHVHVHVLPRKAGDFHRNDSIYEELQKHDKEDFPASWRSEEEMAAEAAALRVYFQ

Turning to `Nc1ncnc2c1ncn2[C@@H]1O[C@H](COP(=O)(S)OCC(O)COP(=O)(S)OCCCCCCNC(=O)c2ccc3c(c2)C2(OC3=O)c3ccc(O)cc3Oc3cc(O)ccc32)[C@@H](O)[C@H]1O` (some centres undefined), the Drug uptake entry in data set [1], in data set [2] and in data set [3] was “Active” each time.

With `Nc1ncnc2c1ncn2[C@@H]1O[C@H](COP(=O)(O)OP(=O)(O)OP(=O)(O)OC[C@H]2O[C@@H](n3cnc4c(N)ncnc43)[C@H](O)[C@@H]2O)[C@@H](O)[C@H]1O`, in data set [4], the remaining at 48 h, 1000 µM came out at 95%. Moreover, the degraded at 48 h, 1000 µM in [5] turned out to be 95%. The metabolised at 48 h, 1000 µM in data set [6] was found to be 88.7%.

In [7], `Nc1ncnc2c1ncn2[C@@H]1O[C@H](COP(=O)(S)OCC(O)COP(=O)(S)OC[C@H]2O[C@@H](n3cnc4c(N)ncnc43)[C@H](O)[C@@H]2O)[C@@H](O)[C@H]1O` (mixture of isomers) gave an inhibitory constant (Ki) of 0.035 µM. For the same molecule, the remaining at 48 h, 1000 µM in [4] was 97%; in data set [8] it was 90%. Besides, the half-inhibitory concentration (IC50) in the data set with HL-60 is 9 µM; in the data set with HEK-293T [9], 17.5 µM; with A549 it was above 80 µM; with HeLa it was above 80 µM. Further, the Activity was 27% in the data set on HEK-293T [10]; 10% in the data set with HEK-293T [11]; 17% in the data set on HEK-293T [12]; 23% with HEK-293T [14]; 21% in the data set with HEK-293T [15]; 12.27% in the data set on HEK-293T [18]. The Activity in the data set with HEK-293T [19] came to 10.5%; in the data set on HEK-293T [20], 14.24%. Also, the outcome in the data set on HEK-293T [13], in the data set with HEK-293T [16] and with HEK-293T [17] was inactive.

Take `Nc1ncnc2c1ncn2[C@@H]1O[C@H](COP(=O)(S)OCC(COP(=O)(O)S)(COP(=O)(S)OC[C@H]2O[C@@H](n3cnc4c(N)ncnc43)[C@H](O)[C@@H]2O)COP(=O)(S)OC[C@H]2O[C@@H](n3cnc4c(N)ncnc43)[C@H](O)[C@@H]2O)[C@@H](O)[C@H]1O` (mixture of isomers): in data set [7], the inhibition constant (Ki) amounted to 0.035 µM. Besides, the remaining at 48 h, 1000 µM in [4] was found to be 97%. The molecule also displayed a concentration for half-maximal inhibition (IC50) in the data set with HEK-293T [9] above 80 µM.

In turn, `Nc1ncnc2c1ncn2[C@@H]1O[C@H](COP(=O)(S)OCC(COP(=O)(S)OC[C@H]2O[C@@H](n3cnc4c(N)ncnc43)[C@H](O)[C@@H]2O)(COP(=O)(S)OC[C@H]2O[C@@H](n3cnc4c(N)ncnc43)[C@H](O)[C@@H]2O)COP(=O)(S)OC[C@H]2O[C@@H](n3cnc4c(N)ncnc43)[C@H](O)[C@@H]2O)[C@@H](O)[C@H]1O` (mixture of isomers) gave a Ki in data set [7] of 0.035 µM. Also, the remaining at 48 h, 1000 µM in [4] turned out to be 97%. The molecule further returned an IC50 with HEK-293T [9] above 80 µM.

In data set [7], `Nc1ncnc2c1ncn2[C@@H]1O[C@H](COP(=O)(S)OCC(COP(=O)(S)OC[C@H]2O[C@@H](n3cnc4c(N)ncnc43)[C@H](O)[C@@H]2O)OP(=O)(S)OC[C@H]2O[C@@H](n3cnc4c(N)ncnc43)[C@H](O)[C@@H]2O)[C@@H](O)[C@H]1O` (mixture of isomers) returned a Ki of 0.035 µM. In addition, the remaining at 48 h, 1000 µM in data set [4] is 97%. For the same molecule, in the data set with HEK-293T [9], the half-maximal inhibitory concentration (IC50) was above 80 µM.

With `Nc1ncnc2c1ncn2[C@@H]1O[C@H](COP(=O)(S)OCC(COP(=O)(S)OC[C@H]2O[C@@H](n3cnc4c(N)ncnc43)[C@H](O)[C@@H]2O)OP(=O)(O)S)[C@@H](O)[C@H]1O` (mixture of isomers), the affinity in [7], expressed as Ki, was 0.035 µM. Also, in data set [4], the remaining at 48 h, 1000 µM stood at 97%. This molecule also returned a 50% inhibitory concentration (IC50) in the data set with HEK-293T [9] above 80 µM.

Consider `Nc1ncnc2c1ncn2[C@@H]1O[C@H](COP(=O)(O)OP(=O)(O)OP(=O)(O)OP(=O)(O)OC[C@H]2O[C@@H](n3cnc4c(N)ncnc43)[C@H](O)[C@@H]2O)[C@@H](O)[C@H]1O` [DIADENOSINE TETRAPHOSPHATE], for which the remaining at 48 h, 1000 µM in data set [4] turned out to be 95%. Moreover, the degraded at 48 h, 1000 µM in data set [5] is 95%. In addition, in data set [6], the metabolised at 48 h, 1000 µM worked out at 92.8%.
